Test results from PubChem BioAssay (NCI).
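All cell lines were grown in 96-well plates and treated with compound for 48 hours. GI50 marks 50% less growth. TGI: total growth inhibition.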

Columns and labels:
Experiment in all cases: NCI anticancer screen, dose series, 48 h
CCRF-CEM leukemia = tested on: CCRF-CEM leukemia
HCC-2998 colon = tested on: HCC-2998 colon
HT29 colon = tested on: HT29 colon
UACC-62 melanoma = tested on: UACC-62 melanoma
MALME-3M melanoma = tested on: MALME-3M melanoma
SW-620 colon = tested on: SW-620 colon
IGROV1 ovarian = tested on: IGROV1 ovarian
CAKI-1 renal = tested on: CAKI-1 renal
UACC-257 melanoma = tested on: UACC-257 melanoma
SK-MEL-2 melanoma = tested on: SK-MEL-2 melanoma
MOLT-4 leukemia = tested on: MOLT-4 leukemia
SNB-75 CNS = tested on: SNB-75 CNS
MDA-MB-468 breast = tested on: MDA-MB-468 breast
A498 renal = tested on: A498 renal
LOX IMVI melanoma = tested on: LOX IMVI melanoma
RPMI-8226 leukemia = tested on: RPMI-8226 leukemia
HCT-15 colon = tested on: HCT-15 colon
786-0 renal = tested on: 786-0 renal
BT-549 breast = tested on: BT-549 breast
HCT-116 colon = tested on: HCT-116 colon
SK-OV-3 ovarian = tested on: SK-OV-3 ovarian
SN12C renal = tested on: SN12C renal
SF-295 CNS = tested on: SF-295 CNS
MDA-MB-231 breast = tested on: MDA-MB-231 breast
ACHN renal = tested on: ACHN renal
TK-10 renal = tested on: TK-10 renal
HL-60(TB) leukemia = tested on: HL-60(TB) leukemia
DU-145 prostate = tested on: DU-145 prostate
OVCAR-3 ovarian = tested on: OVCAR-3 ovarian
UO-31 renal = tested on: UO-31 renal
NCI-H226 lung = tested on: NCI-H226 lung
M14 melanoma = tested on: M14 melanoma
RXF 393 renal = tested on: RXF 393 renal
NCI/ADR-RES ovarian = tested on: NCI/ADR-RES ovarian
OVCAR-8 ovarian = tested on: OVCAR-8 ovarian
PC-3 prostate = tested on: PC-3 prostate
COLO 205 colon = tested on: COLO 205 colon
SK-MEL-28 melanoma = tested on: SK-MEL-28 melanoma
NCI-H23 lung = tested on: NCI-H23 lung
MCF7 breast = tested on: MCF7 breast
U251 CNS = tested on: U251 CNS
T-47D breast = tested on: T-47D breast
MDA-MB-435 = tested on: MDA-MB-435
SR leukemia = tested on: SR leukemia
SK-MEL-5 melanoma = tested on: SK-MEL-5 melanoma
EKVX NSCLC = tested on: EKVX NSCLC
A549 NSCLC = tested on: A549 NSCLC
SF-539 CNS = tested on: SF-539 CNS
OVCAR-5 ovarian = tested on: OVCAR-5 ovarian
SF-268 CNS = tested on: SF-268 CNS
KM12 colon = tested on: KM12 colon
HOP-92 NSCLC = tested on: HOP-92 NSCLC
NCI-H522 lung = tested on: NCI-H522 lung
K-562 leukemia = tested on: K-562 leukemia
OVCAR-4 ovarian = tested on: OVCAR-4 ovarian
HS 578T breast = tested on: HS 578T breast
NCI-H460 lung = tested on: NCI-H460 lung
SNB-19 CNS = tested on: SNB-19 CNS
HOP-62 NSCLC = tested on: HOP-62 NSCLC

C=CC[Se]C(=O)c1ccc(C(=O)[Se]CC=C)s1
GI50 (CCRF-CEM leukemia): 428 nM | TGI (CCRF-CEM leukemia): > 21800 nM | GI50 (HCC-2998 colon): 313 nM | TGI (HCC-2998 colon): 1000 nM | GI50 (HT29 colon): 887 nM | TGI (HT29 colon): > 31500 nM | GI50 (UACC-62 melanoma): 482 nM | TGI (UACC-62 melanoma): 1390 nM | GI50 (MALME-3M melanoma): 670 nM | TGI (MALME-3M melanoma): 2350 nM | GI50 (SW-620 colon): 800 nM | TGI (SW-620 colon): 2140 nM | GI50 (IGROV1 ovarian): 277 nM | TGI (IGROV1 ovarian): 727 nM | GI50 (CAKI-1 renal): 810 nM | TGI (CAKI-1 renal): 9760 nM | GI50 (UACC-257 melanoma): 721 nM | TGI (UACC-257 melanoma): 2080 nM | GI50 (SK-MEL-2 melanoma): 1260 nM | TGI (SK-MEL-2 melanoma): 3170 nM | GI50 (MOLT-4 leukemia): 992 nM | TGI (MOLT-4 leukemia): 5600 nM | GI50 (SNB-75 CNS): 215 nM | TGI (SNB-75 CNS): 577 nM | GI50 (MDA-MB-468 breast): 657 nM | TGI (MDA-MB-468 breast): 1620 nM | GI50 (A498 renal): 2820 nM | TGI (A498 renal): 66900 nM | GI50 (LOX IMVI melanoma): 721 nM | TGI (LOX IMVI melanoma): 2000 nM | GI50 (RPMI-8226 leukemia): 375 nM | TGI (RPMI-8226 leukemia): 2430 nM | GI50 (HCT-15 colon): 765 nM | TGI (HCT-15 colon): 2150 nM | GI50 (786-0 renal): 314 nM | TGI (786-0 renal): 1160 nM | GI50 (BT-549 breast): 324 nM | TGI (BT-549 breast): 1300 nM | GI50 (HCT-116 colon): 327 nM | TGI (HCT-116 colon): 1230 nM | GI50 (SK-OV-3 ovarian): 224 nM | TGI (SK-OV-3 ovarian): 546 nM | GI50 (SN12C renal): 348 nM | TGI (SN12C renal): 1110 nM | GI50 (SF-295 CNS): 55.2 nM | TGI (SF-295 CNS): 317 nM | GI50 (MDA-MB-231 breast): 676 nM | TGI (MDA-MB-231 breast): 6410 nM | GI50 (ACHN renal): 942 nM | TGI (ACHN renal): 4370 nM | GI50 (TK-10 renal): 1050 nM | TGI (TK-10 renal): 7560 nM | GI50 (HL-60(TB) leukemia): 581 nM | TGI (HL-60(TB) leukemia): 2580 nM | GI50 (DU-145 prostate): 680 nM | TGI (DU-145 prostate): 6400 nM | GI50 (OVCAR-3 ovarian): 655 nM | TGI (OVCAR-3 ovarian): 1620 nM | GI50 (UO-31 renal): 515 nM | TGI (UO-31 renal): 1090 nM | GI50 (NCI-H226 lung): 794 nM | TGI (NCI-H226 lung): 2710 nM | GI50 (M14 melanoma): 387 nM | TGI (M14 melanoma): 1570 nM | GI50 (RXF 393 renal): 696 nM | TGI (RXF 393 renal): 1640 nM | GI50 (NCI/ADR-RES ovarian): 261 nM | TGI (NCI/ADR-RES ovarian): 661 nM | GI50 (OVCAR-8 ovarian): 345 nM | TGI (OVCAR-8 ovarian): 1090 nM | GI50 (PC-3 prostate): 286 nM | TGI (PC-3 prostate): 1290 nM | GI50 (COLO 205 colon): 1400 nM | TGI (COLO 205 colon): 4030 nM | GI50 (SK-MEL-28 melanoma): 666 nM | TGI (SK-MEL-28 melanoma): 1850 nM | GI50 (NCI-H23 lung): 313 nM | TGI (NCI-H23 lung): 1030 nM | GI50 (MCF7 breast): 565 nM | TGI (MCF7 breast): 1840 nM | GI50 (U251 CNS): 505 nM | TGI (U251 CNS): 1870 nM | GI50 (T-47D breast): 265 nM | TGI (T-47D breast): 962 nM | GI50 (MDA-MB-435): 691 nM | TGI (MDA-MB-435): 2060 nM | GI50 (SR leukemia): 603 nM | TGI (SR leukemia): 2210 nM | GI50 (SK-MEL-5 melanoma): 1490 nM | TGI (SK-MEL-5 melanoma): 3350 nM | GI50 (EKVX NSCLC): 623 nM | TGI (EKVX NSCLC): 1630 nM | GI50 (A549 NSCLC): 313 nM | TGI (A549 NSCLC): > 27500 nM | GI50 (SF-539 CNS): 307 nM | TGI (SF-539 CNS): 852 nM | GI50 (OVCAR-5 ovarian): 382 nM | TGI (OVCAR-5 ovarian): 1010 nM | GI50 (SF-268 CNS): 768 nM | TGI (SF-268 CNS): 4830 nM | GI50 (KM12 colon): 284 nM | TGI (KM12 colon): 928 nM | GI50 (HOP-92 NSCLC): 920 nM | TGI (HOP-92 NSCLC): 7650 nM | GI50 (NCI-H522 lung): 524 nM | TGI (NCI-H522 lung): 1040 nM | GI50 (K-562 leukemia): 2100 nM | TGI (K-562 leukemia): > 23000 nM | GI50 (OVCAR-4 ovarian): 948 nM | TGI (OVCAR-4 ovarian): 2500 nM | GI50 (HS 578T breast): 294 nM | TGI (HS 578T breast): 1890 nM | GI50 (NCI-H460 lung): 289 nM | TGI (NCI-H460 lung): 1610 nM | GI50 (SNB-19 CNS): 289 nM | TGI (SNB-19 CNS): 1260 nM | GI50 (HOP-62 NSCLC): 152 nM | TGI (HOP-62 NSCLC): 1450 nM
